Laboratory results as given in ChEMBL document CHEMBL3769311, “The natural flavone fukugetin as a mixed-type inhibitor for human tissue kallikreins” (Bioorg Med Chem Lett, 2016).

Assays:
Kallikrein-2 [1] = target: T1, Kallikrein-2 (Homo sapiens, UniProt P20151); experiment: Inhibition of human tissue kallikrein-2 expressed in baculovirus infected insect cells using Abz-KLRSSQ-EDDnp as substrate preincubated for 10 mins followed by substrate addition by FRET assay
T1 sequence (P20151 whole entry): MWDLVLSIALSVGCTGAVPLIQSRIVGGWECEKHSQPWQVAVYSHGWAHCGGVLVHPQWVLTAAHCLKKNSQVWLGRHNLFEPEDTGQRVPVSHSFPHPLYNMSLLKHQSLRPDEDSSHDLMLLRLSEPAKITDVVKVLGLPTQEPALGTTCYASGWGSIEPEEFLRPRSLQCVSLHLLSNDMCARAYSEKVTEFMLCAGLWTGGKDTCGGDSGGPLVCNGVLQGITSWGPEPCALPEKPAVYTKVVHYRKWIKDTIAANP

Kallikrein-1 [2] = target: T2, Kallikrein-1 (Homo sapiens, UniProt P06870); experiment: Mixed-type inhibition of human tissue kallikrein-1 expressed in baculovirus infected insect cells using Abz-KLRSSQ-EDDnp as substrate preincubated for 10 mins followed by substrate addition by Lineweaver-Burk plot analysis
T2 sequence (P06870 whole entry): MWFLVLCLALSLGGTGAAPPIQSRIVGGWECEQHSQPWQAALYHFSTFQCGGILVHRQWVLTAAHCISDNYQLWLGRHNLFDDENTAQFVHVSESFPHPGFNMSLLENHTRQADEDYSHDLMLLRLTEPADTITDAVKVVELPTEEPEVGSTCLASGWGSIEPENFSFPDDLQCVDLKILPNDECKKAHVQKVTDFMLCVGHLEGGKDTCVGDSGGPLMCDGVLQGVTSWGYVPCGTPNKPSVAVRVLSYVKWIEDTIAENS

Kallikrein-7 = Kallikrein-7 (Homo sapiens, UniProt P49862); experiment: Inhibition of human tissue kallikrein-7 expressed in baculovirus infected insect cells using Abz-KLYSSQ-EDDnp as substrate preincubated for 10 mins followed by substrate addition by FRET assay
Chain of Kallikrein-7 (P49862 whole entry): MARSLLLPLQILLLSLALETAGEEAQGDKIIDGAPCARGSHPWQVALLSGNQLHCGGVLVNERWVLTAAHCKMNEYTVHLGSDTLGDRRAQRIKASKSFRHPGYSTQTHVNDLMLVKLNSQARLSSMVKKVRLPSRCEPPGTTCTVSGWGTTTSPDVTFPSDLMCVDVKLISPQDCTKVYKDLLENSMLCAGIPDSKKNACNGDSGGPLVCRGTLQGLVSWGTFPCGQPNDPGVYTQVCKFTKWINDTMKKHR

Kallikrein-2 [3] = target: T1, Kallikrein-2; experiment: Mixed-type inhibition of human tissue kallikrein-2 expressed in baculovirus infected insect cells using Abz-KLRSSQ-EDDnp as substrate preincubated for 10 mins followed by substrate addition by Lineweaver-Burk plot analysis
Kallikrein-5 = target: T3, Kallikrein-5 (Homo sapiens, UniProt Q9Y337); experiment: Inhibition of human tissue kallikrein-5 expressed in baculovirus infected insect cells using Abz-KLRSSQ-EDDnp as substrate preincubated for 10 mins followed by substrate addition by FRET assay
T3 sequence (Q9Y337 whole entry): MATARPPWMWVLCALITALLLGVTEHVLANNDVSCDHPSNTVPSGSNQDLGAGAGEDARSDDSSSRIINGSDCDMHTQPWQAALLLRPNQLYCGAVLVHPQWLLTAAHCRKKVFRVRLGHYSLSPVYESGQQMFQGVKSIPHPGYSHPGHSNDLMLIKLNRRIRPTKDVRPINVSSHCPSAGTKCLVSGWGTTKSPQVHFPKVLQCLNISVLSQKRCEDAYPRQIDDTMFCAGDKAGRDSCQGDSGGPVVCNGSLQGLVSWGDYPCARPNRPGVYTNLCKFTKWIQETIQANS

[4] = target: T4, Prostate-specific antigen (Homo sapiens, UniProt P07288); experiment: Inhibition of human tissue kallikrein-3 expressed in baculovirus infected insect cells using Abz-KLYSSQ-EDDnp as substrate preincubated for 10 mins followed by substrate addition by FRET assay
T4 sequence (P07288 whole entry): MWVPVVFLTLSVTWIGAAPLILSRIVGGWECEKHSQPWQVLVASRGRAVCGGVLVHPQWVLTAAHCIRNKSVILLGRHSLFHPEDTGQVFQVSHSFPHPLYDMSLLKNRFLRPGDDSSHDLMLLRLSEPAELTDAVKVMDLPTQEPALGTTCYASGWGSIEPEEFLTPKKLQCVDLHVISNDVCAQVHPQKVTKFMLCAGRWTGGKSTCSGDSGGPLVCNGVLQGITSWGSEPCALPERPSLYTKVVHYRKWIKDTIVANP

Kallikrein-6 = Kallikrein-6 (Homo sapiens, UniProt Q92876); experiment: Inhibition of human tissue kallikrein-6 expressed in baculovirus infected insect cells using Abz-KLRSSQ-EDDnp as substrate preincubated for 10 mins followed by substrate addition by FRET assay
Kallikrein-1 [5] = target: T2, Kallikrein-1; experiment: Inhibition of human tissue kallikrein-1 expressed in baculovirus infected insect cells using Abz-KLRSSQ-EDDnp as substrate preincubated for 10 mins followed by substrate addition by FRET assay

IC50 (Kallikrein-2 [1]): 3.2 µM | Ki (Kallikrein-1 [2]): 3.6 µM | IC50 (Kallikrein-7): 15 µM | Ki (Kallikrein-2 [3]): 1.6 µM | IC50 (Kallikrein-5): 12.5 µM | IC50 [4]: 13 µM | IC50 (Kallikrein-6): 13.5 µM | IC50 (Kallikrein-1 [5]): 5.7 µM
Structure (SMILES): O=C1CC(c2ccc(O)c(O)c2)Oc2c1c(O)cc(O)c2[C@@H]1C(=O)c2c(O)cc(O)cc2O[C@H]1c1ccc(O)cc1 (stereo partly drawn) [FUKUGETIN]
